Experimental data as given in the supplement of paper PMC11061612.

Tests used:
Paclitaxel = compound: CC(=O)O[C@H]1C(=O)[C@@]2(C)[C@H]([C@H](OC(=O)c3ccccc3)[C@]3(O)C[C@H](OC(=O)[C@H](O)[C@@H](NC(=O)c4ccccc4)c4ccccc4)C(C)=C1C3(C)C)[C@]1(OC(C)=O)CO[C@@H]1C[C@@H]2O [Paclitaxel]; settings: max 3 µM
Summary of the method: (§1)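 Cancer cell lines were dosed for 72 hours (final DMSO typically 0.2%) after 24 hours at 37°C and 5% CO2 in 1536-well plates containing 7.5 μl DMEM/F12 or RPMI with 10% FBS. Viability came from CellTiter-Glo 2.0 luminescence, scaled between blank-well and DMSO-well means, and dose responses were fitted to a two-parameter logistic curve with a non-linear mixed effects model. The single-agent IC50 was obtained from this fit.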

Crizotinib = compound: C[C@@H](Oc1cc(-c2cnn(C3CCNCC3)c2)cnc1N)c1c(Cl)ccc(F)c1Cl [Crizotinib]; settings: max 10 µM
Summary of the method: as §1

AZD1390 = compound: CC(C)n1c(=O)n(C)c2cnc3cc(F)c(-c4ccc(OCCCN5CCCCC5)nc4)cc3c21 [AZD1390]; settings: max 0.3 µM
Summary of the method: as §1

AZD2811 = compound: CCN(CCO)CCCOc1ccc2c(Nc3cc(CC(=O)Nc4cccc(F)c4)[nH]n3)ncnc2c1 [AZD2811]; settings: max 1 µM
Summary of the method: as §1

AZD0156 = compound: CN(C)CCCOc1ccc(-c2ccc3ncc4c(c3c2)n(C2CCOCC2)c(=O)n4C)cn1 [AZD0156]; settings: max 3 µM
Summary of the method: as §1

Selumetinib = compound: Cn1cnc2c(F)c(Nc3ccc(Br)cc3Cl)c(C(=O)NOCCO)cc21 [Selumetinib]; settings: max 10 µM
Summary of the method: as §1

Prexasertib = compound: COc1cccc(OCCCN)c1-c1cc(Nc2cnc(C#N)cn2)n[nH]1 [Prexasertib]; settings: max 1 µM
Summary of the method: as §1

Taselisib = compound: Cc1nc(-c2cn3c(n2)-c2ccc(-c4cnn(C(C)(C)C(N)=O)c4)cc2OCC3)n(C(C)C)n1 [Taselisib]; settings: max 10 µM
Summary of the method: as §1

Venetoclax = compound: CC1(C)CCC(CN2CCN(c3ccc(C(=O)NS(=O)(=O)c4ccc(NCC5CCOCC5)c([N+](=O)[O-])c4)c(Oc4cnc5[nH]ccc5c4)c3)CC2)=C(c2ccc(Cl)cc2)C1 [Venetoclax]; settings: max 1 µM
Summary of the method: as §1

AZD4320 = compound: CN(CC[C@H](CSC1=CC=CC=C1)NC2=C(C=C(C=C2)S(=O)(=O)NC(=O)C3=CC=C(C=C3)N4CCC(CC4)[C@H](C5=CC=CC=C5C6=CC=C(C=C6)Cl)O)S(=O)(=O)C(F)(F)F)CCO [AZD4320]; settings: max 1 µM
Summary of the method: as §1

MK-2206 = compound: NC1(c2ccc(-c3nc4ccn5c(=O)[nH]nc5c4cc3-c3ccccc3)cc2)CCC1 [MK-2206]; settings: max 10 µM
Summary of the method: as §1

Savolitinib = compound: C[C@@H](c1ccc2nccn2c1)n1nnc2ncc(-c3cnn(C)c3)nc21 [Savolitinib]; settings: max 1 µM
Summary of the method: as §1

SG3199 = compound: CC1=CN2[C@@H](C1)C=NC3=CC(=C(C=C3C2=O)OC)OCCCCCOC4=C(C=C5C(=C4)N=C[C@@H]6CC(=CN6C5=O)C)OC [SG3199]; settings: max 0.001 µM
Summary of the method: as §1

AZD8186 = compound: C[C@@H](Nc1cc(F)cc(F)c1)c1cc(C(=O)N(C)C)cc2c(=O)cc(N3CCOCC3)oc12 [AZD8186]; settings: max 10 µM
Summary of the method: as §1

AZD5153 = compound: COc1nnc2ccc(N3CCC(c4ccc(OCCN5CCN(C)C(=O)[C@H]5C)cc4)CC3)nn12 [AZD5153]; settings: max 1 µM
Summary of the method: as §1

AZD1775 = compound: C=CCn1c(=O)c2cnc(Nc3ccc(N4CCN(C)CC4)cc3)nc2n1-c1cccc(C(C)(C)O)n1 [AZD1775]; settings: max 3 µM
Summary of the method: as §1

Lapatinib = compound: CS(=O)(=O)CCNCc1ccc(-c2ccc3ncnc(Nc4ccc(OCc5cccc(F)c5)c(Cl)c4)c3c2)o1 [Lapatinib]; settings: max 10 µM
Summary of the method: as §1

Etoposide = compound: COc1cc([C@@H]2c3cc4c(cc3[C@@H](O[C@@H]3O[C@@H]5CO[C@@H](C)O[C@H]5[C@H](O)[C@H]3O)[C@H]3COC(=O)[C@H]23)OCO4)cc(OC)c1O [Etoposide]; settings: max 10 µM
Summary of the method: as §1

[1] = compound: O=C(Nc1ccc2[nH]nc(-c3ccncc3)c2c1)[C@@H]1CCN(CC(=O)N2CCN(c3ccc(-c4ncccn4)cc3)CC2)C1; settings: max 5 µM
Summary of the method: as §1

SN-38 = compound: CCc1c2c(nc3ccc(O)cc13)-c1cc3c(c(=O)n1C2)COC(=O)[C@]3(O)CC [SN-38]; settings: max 0.3 µM
Summary of the method: as §1

Carboplatin = compound: C1CC(C1)(C(=O)[O-])C(=O)[O-].N.N.[Pt+2] [Carboplatin]; settings: max 10 µM
Summary of the method: as §1

Trametinib = compound: CC(=O)Nc1cccc(-n2c(=O)n(C3CC3)c(=O)c3c(Nc4ccc(I)cc4F)n(C)c(=O)c(C)c32)c1 [Trametinib]; settings: max 1 µM
Summary of the method: as §1

Doxorubicin = compound: COc1cccc2c1C(=O)c1c(O)c3c(c(O)c1C2=O)C[C@@](O)(C(=O)CO)C[C@@H]3O[C@H]1C[C@H](N)[C@H](O)[C@H](C)O1 [Doxorubicin]; settings: max 1 µM
Summary of the method: as §1

Gemcitabine = compound: Nc1ccn([C@@H]2O[C@H](CO)[C@@H](O)C2(F)F)c(=O)n1 [Gemcitabine]; settings: max 0.3 µM
Summary of the method: as §1

AZD5363 = compound: C1CN(CCC1(C(=O)N[C@@H](CCO)C2=CC=C(C=C2)Cl)N)C3=NC=NC4=C3C=CN4 [AZD5363]; settings: max 10 µM
Summary of the method: as §1

5-Fluorouracil = compound: O=c1[nH]cc(F)c(=O)[nH]1 [5-Fluorouracil]; settings: max 20 µM
Summary of the method: as §1

Dasatinib = compound: CC1=C(C(=CC=C1)Cl)NC(=O)C2=CN=C(S2)NC3=CC(=NC(=N3)C)N4CCN(CC4)CCO [Dasatinib]; settings: max 2 µM
Summary of the method: as §1

SRA737 = compound: N#Cc1cnc(Nc2cc(NC[C@H]3CNCCO3)c(C(F)(F)F)cn2)cn1 [SRA737]; settings: max 10 µM
Summary of the method: as §1

Palbociclib = compound: CC(=O)c1c(C)c2cnc(Nc3ccc(N4CCNCC4)cn3)nc2n(C2CCCC2)c1=O [Palbociclib]; settings: max 10 µM
Summary of the method: as §1

Gefitinib = compound: COc1cc2ncnc(Nc3ccc(F)c(Cl)c3)c2cc1OCCCN1CCOCC1 [Gefitinib]; settings: max 10 µM
Summary of the method: as §1

AZD5991 = compound: Cc1c2c(nn1C)CSCc1cc(n(C)n1)CSc1cc(c3ccccc3c1)OCCCc1c(C(=O)O)n(C)c3c-2c(Cl)ccc13 [AZD5991]; settings: max 1 µM
Summary of the method: as §1

Olaparib = compound: O=C(c1cc(Cc2n[nH]c(=O)c3ccccc23)ccc1F)N1CCN(C(=O)C2CC2)CC1 [Olaparib]; settings: max 10 µM
Summary of the method: as §1

Alisertib = compound: COc1cc(Nc2ncc3c(n2)-c2ccc(Cl)cc2C(c2c(F)cccc2OC)=NC3)ccc1C(=O)O [Alisertib]; settings: max 10 µM
Summary of the method: as §1

AZD6738 = compound: C[C@@H]1COCCN1C2=NC(=NC(=C2)C3(CC3)[S@](=N)(=O)C)C4=C5C=CNC5=NC=C4 [AZD6738]; settings: max 10 µM
Summary of the method: as §1

AZD7648 = compound: Cc1cc2ncnn2cc1Nc1ncc2c(n1)n(C1CCOCC1)c(=O)n2C [AZD7648]; settings: max 10 µM
Summary of the method: as §1

## CW-2 (Colorectal Carcinoma)
Paclitaxel
  IC50, cell viability 72 h: 1590 nM
Crizotinib
  IC50, cell viability 72 h: > 10 µM
AZD1390
  IC50, cell viability 72 h: > 300 nM
AZD2811
  IC50, cell viability 72 h: > 1000 nM
AZD0156
  IC50, cell viability 72 h: > 3000 nM
Selumetinib
  IC50, cell viability 72 h: > 10 µM
Prexasertib
  IC50, cell viability 72 h: > 1000 nM
Taselisib
  IC50, cell viability 72 h: > 10 µM
Venetoclax
  IC50, cell viability 72 h: > 1000 nM
AZD4320
  IC50, cell viability 72 h: > 1000 nM
MK-2206
  IC50, cell viability 72 h: > 10 µM
Savolitinib
  IC50, cell viability 72 h: > 1000 nM
SG3199
  IC50, cell viability 72 h: > 1 nM
AZD8186
  IC50, cell viability 72 h: > 10 µM
AZD5153
  IC50, cell viability 72 h: 861 nM
AZD1775
  IC50, cell viability 72 h: 2720 nM
Lapatinib
  IC50, cell viability 72 h: > 10 µM
Etoposide
  IC50, cell viability 72 h: > 10 µM
[1]
  IC50, cell viability 72 h: > 5 µM
SN-38
  IC50, cell viability 72 h: 150 nM
Carboplatin
  IC50, cell viability 72 h: > 10 µM
Trametinib
  IC50, cell viability 72 h: > 1000 nM
Doxorubicin
  IC50, cell viability 72 h: > 1000 nM
Gemcitabine
  IC50, cell viability 72 h: 246 nM
AZD5363
  IC50, cell viability 72 h: > 10 µM
5-Fluorouracil
  IC50, cell viability 72 h: > 20 µM
Dasatinib
  IC50, cell viability 72 h: > 2000 nM
SRA737
  IC50, cell viability 72 h: > 10 µM
Palbociclib
  IC50, cell viability 72 h: > 10 µM
Gefitinib
  IC50, cell viability 72 h: > 10 µM
AZD5991
  IC50, cell viability 72 h: > 1000 nM
Olaparib
  IC50, cell viability 72 h: > 10 µM
Alisertib
  IC50, cell viability 72 h: > 10 µM
AZD6738
  IC50, cell viability 72 h: > 10 µM
AZD7648
  IC50, cell viability 72 h: > 10 µM
